These results are taken from PubChem BioAssay AID463074 (Broad Institute, 2010).

As a reminder, the AC50 is the midpoint of the concentration-response curve, whichever way the signal moves.

Activity calls are given as the source filed them.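 How the source made its calls: active means AC50 no more than tenfold above the top dose tested, or full inhibition at every dose with a flat fit (cut at about 19 µM in these data); inconclusive means flat curve fit with inhibition between 30% and 70%, or poor fit; inactive means AC50 more than tenfold above the top dose tested.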

For the test, the system named is HMLE_sh_eGFP viability, CellTiter-Glo luminescence, 72 h. The test can be described thus: viability loss of HMLE_sh_eGFP cells – cell-based, luminescence, counter-screen for HMLE_sh_ECad selective toxicity project, dose response (AID 463074).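 Further: counterscreen control line to flag general toxicity for the HMLE_sh_ECad screen; potency for loss of viability as luminescence drops below DMSO wells.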
Take `O=Nc1c(O)n(Cc2ccc(Cl)cc2Cl)c2ccccc12`: the AC50 is 7.05 µM.

As to `O=c1cc(N2CCCCC2)c(-c2ccccc2)nn1Cc1ccccc1`, the AC50 is 12 µM.

On to `CCCCc1ccc(NC(=O)CSc2nc(=O)n(CCN(CC)CC)c3c2CCC3)cc1`, for which the AC50 is 9.97 µM.

In the case of `CC(C)=CCCC1(C)C=Cc2c(ccc3c2[nH]c2cc(O)c(C)cc23)O1` (configuration not stated), the AC50 was 3.58 µM.

In the case of `O=C(/C=C/c1ccc2c(c1)OCO2)c1c(O)n(CCC2=CCCCC2)c(=O)[nH]c1=O`, the AC50 is 1.63 µM.

For the molecule `O=C1C=C(Nc2ccc(F)cc2)c2ccccc2C1=O`, the concentration at half-maximal activity (AC50) was 6.78 µM.

As to `O=C(CN1CCN(c2ccc(O)cc2)CC1)Nc1ccc(SC(F)F)cc1`, the AC50 was 6.17 µM.

Consider `CC(C)(C)C1CCC2(CC1)C(C#N)=C(SCC(=O)NC1CCCCC1)NC(=O)C2C#N` (configuration not stated), for which the AC50 was 9.88 µM.

`O=[N+]([O-])c1ccc(COc2ccc(-c3[nH]ncc3-c3ccc(Cl)cc3)c(O)c2)cc1`: the AC50 is 4.01 µM.

With `COc1ccc(NC(=O)c2cc3ccccc3cc2O)cc1`, the AC50 is 8.3 µM.

On to `Cc1ccc2sc(N(CCCN(C)C)C(=O)c3ccc(S(=O)(=O)N(C)C4CCCCC4)cc3)nc2c1C`, for which the concentration at half-maximal activity (AC50) is 3.63 µM.

On to `O=C(Nc1ccc(-c2csc(Nc3ccc(Cl)cc3)n2)cc1)c1cc([N+](=O)[O-])cc(C(F)(F)F)c1`, for which the AC50 is 3.08 µM.

For `CCCc1cc(SCC(=O)Nc2c(C)n(C)n(-c3ccccc3)c2=O)n2c(nc3ccccc32)c1C#N`, the AC50 was > 19.5 µM (inactive).

With `Cc1c(C(=O)c2cccc3ccccc23)c2cccc3c2n1[C@H](CN1CCOCC1)CO3`, the AC50 is 3.66 µM.

On to `COc1ccc2c(c1)[nH]c1c(=O)n(/N=C/C3C(C)C=C(C)CC3C)c(=O)[nH]c12` (configuration not stated), for which the AC50 is > 19.5 µM (inactive).

On to `CC(C)(c1ccccc1)c1ccc(OCCN2CCCC2)cc1`, for which the AC50 was 0.903 µM.

Consider `O=C(CSc1nnc(-c2ccccc2O)n1Cc1ccccc1)NNC(=O)c1ccccc1O`, for which the AC50 was 3.22 µM.

As to `CCC/C(=C1/c2ccccc2C(=O)N1c1ccccc1)c1ccc2[nH]ccc2c1`, the AC50 is 1.67 µM.

As for `CCOC(=O)c1cccc(C2=CC(=O)C[C@H](c3ccc(Cl)cc3)C2)c1`, the concentration at half-maximal activity (AC50) was 2.82 µM.

Consider `Cc1ccnc(NC(=O)CSc2cc(=O)n(C)c3ccccc23)c1`, for which the AC50 is 8.16 µM.

Regarding `Cc1ccc(-c2csc(-c3c[nH]c4ccccc34)n2)c(C)c1`, the half-maximal activity concentration (AC50) is 4.19 µM.

In the case of `CN(C)C(CNS(=O)(=O)c1ccc2ccccc2c1)c1ccccc1` (configuration not stated), the AC50 is > 19.5 µM (inactive).

Consider `N#Cc1c(/N=C/N2CCCC2)oc(-c2ccccc2)c1-c1ccccc1`, for which the AC50 is 3.02 µM.

Turning to `CC(=O)c1c(C)oc2c1C(=O)c1ccccc1C2=O`, the AC50 is 4.4 µM.

Consider `Cc1ccnc2c1ccc1c(C)ccnc12`, for which the AC50 was 0.937 µM.

As to `CN1CCN(c2ccc(NC(=O)c3ccc(Cl)cc3)cn2)CC1`, the AC50 is > 19.5 µM (inactive).

Take `O=C(Nc1ccc(NC(=S)NC(=O)c2ccccc2Cl)cc1)c1cccc(Cl)c1`: the AC50 is 17.8 µM.

As for `Cc1nc([N+](=O)[O-])c(Br)n1CC(=O)c1ccc2ccccc2c1`, the half-maximal activity concentration (AC50) is 6.46 µM.

As for `Cc1ccc(C)c(N2CCN(C(=S)Nc3ccc4nc(N5CCN(C)CC5)cc(C)c4c3)CC2)c1`, the AC50 was 7.7 µM.

Regarding `Oc1ccccc1/C=N/Nc1nccnc1Cl`, the AC50 was 5.91 µM.

For the molecule `CC(C)Cc1nc2oc3c(Cl)ncnc3c2c2c1CCCC2`, the half-maximal activity concentration (AC50) is 4.82 µM.

As for `CC1CCCN(CCCOc2ccc(Br)cc2Cl)C1` (configuration not stated), the AC50 is 8.36 µM.

As to `CCOC(=O)c1sc(NC(=O)Nc2ccccc2Cl)cc1C`, the AC50 was 7.58 µM.

Consider `COc1ccc(-c2c(-c3cc(OC)cc(OC)c3)n(C)c3ccc(-c4cc(F)cc(OC)c4)cc23)cc1`, for which the AC50 was > 19.5 µM (inactive).

On to `O=C1C2C3C=CC(C3)C2C(=O)N1c1ccc(N2CCN(c3ccccn3)CC2)c([N+](=O)[O-])c1` (configuration not stated), for which the AC50 is 3.42 µM.

As to `CC(C)(Sc1ccc(CCN(CCCCC2CCCCC2)C(=O)NC2CCCCC2)cc1)C(=O)O`, the concentration at half-maximal activity (AC50) is 5.57 µM.

Regarding `C=CCNCCCOc1ccc(Cl)cc1C(C)(C)C`, the AC50 was 14.9 µM.
